Patent US10537100B2, “Substituted methylenedioxybenzyl compounds and their use as synergists” (Endura SPA, priority 2015, dated 2020)

How the values were obtained:
[1] = system: CYP6CM1 from Bemisia tabaci; assay: Inhibition of recombinant oxidase enzyme (P450) CYP6CM1, 7-ethoxycoumarin O-deethylation; settings: for inhibition activity compared with PBO: CYP6CM1, statement in text; for Bemisia tabaci CYPCM1 percentage of activity remaining: recombinant enzyme 50 μL + 3 μL of 10 mM stock in acetone, 10 min incubation, 7-ethoxycoumarin
Experimental: Ability of the synergists of the invention to inhibit oxidative enzymes (P450), a major mechanism conferring resistance to xenobiotics, was measured using recombinant enzymes corresponding to CYP6CY3 from Myzus persicae and CYP6CM1 from Bemisia tabaci.
The following synergists were tested in comparison with piperonyl butoxide (PBO): • 5-n-butyl-6-((prop-2-ynyloxy)methyl)benzo[d][1,3]dioxole the compound prepared in Example 2 • 5-n-hexyl-6-((prop-2-ynyloxy)methyl)benzo[d][1,3]dioxole the compound prepared in Example 1 CYP6CM1
Substrate used was 7-ethoxycoumarin for inhibition assays as described by Ulrich and Weber (1972) and adapted to microplate format as described by De Sousa et al. (1995).
For inhibition assays, stock solutions of the compounds of Example 1 and Example 2 (10 mM) were prepared in acetone. Diluted recombinant enzyme (50 μL) was mixed with 3 μL of the above mentioned compound stock solutions, with acetone only used as a control. After 10 min incubation at room temperature, 80 μL of 0.125 mM 7-ethoxycoumarin was added, followed by 10 μL 9.6 mM NADPH (nicotinamide adenine dinucleotide phosphate) in 0.1 M sodium phosphate, pH 7.8, and O-deethylation activity monitored as above. A PBO solution (10 mM) was prepared in the same way as a comparison.

Blattella germanica = assay: Contact test on treated glass vials, synergist with cypermethrin; assay type: in vivo
Experimental: Laboratory bred B. germanica species, mixed ages (pre-immaginal and imagoes) and mixed sex were assayed for the test.
An insecticide stock solution was prepared with 150 μL of cypermethrin commercial formulation and diluted to 15 μL/mL with technical acetone to a final volume of 10 mL. The solution contained 450 μg/mL of cypermethrin per liter of insecticidal solution
Stock solution of the compounds of Example 1 and Example 2 were prepared dissolving around 10 mg of EC formulations containing compounds of the Example 1 and Example 2 in technical acetone to have a final concentration of 1.365 μg/mL.
Stock solution (1650 μL) was diluted to 2250 μL with acetone or with stock of insecticide in acetone to have respectively a final concentration of 1 g/L of synergist (as active ingredient) or 0.12 g/L of cypermethrin+1 g/L of the compounds of Example 1 and Example 2. Insecticide alone was prepared adding 600 μL of stock solution to 1650 μL of acetone.
Glass vials (internal surface 35 cm^2) were treated with 350 μL of insecticide solution and allowed to dry in a fume hood on a vial rotator and used as soon as the acetone was fully evaporated.
B. germanica specimens were introduced singly in vials. 20 specimens were tested for each combination of product. The exposure time to product residues was 30 minutes. After this duration the specimens were transferred to an untreated vial ad provided with food and water.
In parallel within the test, a control study has been set up with the same conditions and methods using acetone only treated vials.
The test conditions were as follows: • temperature: 22-24° C. during knock down evaluation (t: 0-30′); 26° C. during mortality assessment (t: 24 h) • relative humidity: min. 60% • light regime: 8 hrs dark/16 hrs natural illumination.
The reading intervals of the number of knocked down and the number of dead insects were: 5-10-15-20-25-30 minutes. A final reading was done 24 hours after the starting of the exposure.
The calculation model of efficacy is according to Abbott's formula (Abbott W S (1925) A method for computing the effectiveness of an insecticide. J. Econ. Entomol. 18: 265-267):
The results are reported in the following Table 5 and represent an average of 4 repetitions.

Musca domestica = assay: Contact test on treated glass surfaces, synergist with cypermethrin; assay type: in vivo; settings: in combination with cypermethrin
Experimental: Laboratory bred Musca domestica species, 4-5 days old mixed sex imagoes derived from a field collected strain were assayed for the test. 1000 ml of test solutions were prepared diluting in water 6.06 grams of cypermethrin commercial formulation, equivalent to 0.224 g of cypermethrin per liter of insecticidal solution and a suitable amount of synergist such as to have a ratio between cypermethryn and synergists=1:13. The synergists were formulated in the form of emulsified concentrate (EC). The following amount of the formulations of synergist EC were added to the above described insecticidal solution of cypermethrin.
3.83 g of EC formulation containing 77.1% (w/w) of the compound of Example 2 (5-n-butyl-6-((prop-2-ynyloxy)methyl)benzo[d][1,3]dioxole)
3.57 g of EC formulation containing 83% (w/w) of the comparison compound 5-(but-2-ynyloxymethyl)-6-n-propyl-benzo[1,3]dioxole (EN126) corresponding to 2.95 g of the compound of the invention and of the comparison product per liter of test formulation
1 ml of each test formulation was applied to each individual grass surface of 100 cm^2 by means of a hand held pump sprayer on a scale measuring by 2 decimal precision, being the acceptable limit of divergence: +/−10%. The treated glass surfaces were left at room temperature for 24 hours after treatment and prior to be used. 40 mixed sex Musca domestica imagoes (20 males and 20 females) were selected and placed into a 500 cm^3 glass cylinders covered with an untreated glass surface until the start of the study. Five replicates were executed, altogether 200 houseflies (100 males and 100 females) were used per test formulation. At the beginning of the test, the untreated glass covering the glass cylinder was replaced with a glass surface treated with the test formulation. The exposure time was 30 minutes. After this period of time, the treated glass surfaces were removed and replaced with untreated ones. During the test water and food (water/sugar solution) were provided to the test insect inside the glass cylinders
In parallel with the test, the mortality of flies in an untreated control replicate was determined using the same conditions and methods. Throughout the control test, non-treated glass surfaces covered the glass cylinders. The maximum mortality rate allowed within the control group to consider the test representative was 10% after 24 hours. If above this value, the test was not considered representative and was repeated. During the trials, no deviance has been noted.
The test conditions were as follows: • temperature: 23-25° C. • relative humidity: min. 60% • light regime: 12 hrs dark/12 hrs natural illumination.
The reading intervals of the number of knocked down flies were: 10-20-30-40-50-60-90-120-180 minutes. Mortality was determined after 24 hours.
The efficacy was calculated according the following formula

Row | Structure (SMILES) | inhibition activity compared with PBO [1] | Bemisia tabaci CYPCM1 percentage of activity remaining [1] [%] | synergist effect when mixed with Cypermethrin (Blattella germanica) | efficacy compared with comparison product EN126 (Musca domestica) | knock down activity compared with comparison product EN126 (Musca domestica; clearly notable at short times)
1 | C#CCOCc1cc2c(cc1CCCCCC)OCO2 [Compound of Example 1, 5-n-hexyl-6-((prop-2-ynyloxy)methyl)benzo[d][1,3]dioxole] | better than PBO | 85.19 | synergist effect | – | –
2 | C#CCOCc1cc2c(cc1CCCC)OCO2 [Compound of Example 2, 5-n-butyl-6-((prop-2-ynyloxy)methyl)benzo[d][1,3]dioxole] | better than PBO | 53.48 | synergist effect | better efficacy | better knock down activity
